Experimental data as given in patent US10674724B2, “Method of activating immune response in plants” (priority 2012, dated 2020).
Values belong to the compound of their own block, whether it stands above or below them.

Key:
solubility in water = format: physicochemical
NPR1 [1] = molecular target: T1, NPR1 (Arabidopsis thaliana, UniProt P93002); experiment: homologous and heterologous competitive binding curves for the [14C]SA-NPR1 interaction (equilibrium dialysis); conditions: 0.08 μM NPR1, 0.07 μM [14C]SA
T1 construct: made in house; host or cells: E. coli
Description: Given the dissociation reaction:
For the saturation binding curves (FIGS. 1C and 7D/E), 0.8 μM of NPR1 protein was incubated with a final concentration of 0.007-14 μM [^14C]SA. The data was analyzed by non-linear regression using GraphPad PRISM 4 and fitted to a one-site-binding rectangular hyperbola. For homologous and heterologous competitive binding curves (FIGS. 1E/F and 7F/G), 0.08 μM of NPR1 protein was incubated with a final concentration of 0.07 μM [^14C]SA.

NPR1 [2] = molecular target: T1, NPR1; experiment: Sephacryl S300 gel filtration of Strep-tagged NPR1; format: biochemical; conditions: 1 mM SA, catechol, 4-hydroxy benzoic acid or methyl-salicylate, 30 min; DTT concentration not given
Description: Strep-tagged purified proteins in a final volume of 2 ml were subjected to gel filtration analysis on the Sephacryl S100 HR or Sephacryl S300 HR packed in 50 cm long HR 16 columns (GE Health) and equilibrated with S300 chromatography buffer (50 mM HEPES, pH 7.4, 250 mM NaCl. Elutions, in 0.5 ml fractions, were performed in the same buffer at a flow rate of 0.8 ml/min. Where indicated, proteins were incubated with 1 mM SA, 1 mM catechol, 1 mM 4-hydroxy benzoic acid, or 1 mM methyl-salicylate at room temperature for 30 min prior to chromatography as described above with the exception that the chromatography buffer was supplemented with 1 mM SA, 1 mM catechol, 1 mM 4-hydroxy benzoic acid, or 1 mM methyl-salicylate, respectively. In the case of the EDTA treatment, NPR1 was stripped of its metal by a 50 mM EDTA treatment of 30 min, followed by an incubation of 30 min with 1 mM SA prior to gel filtration. In this case, the chromatography buffer was supplemented with 1 mM SA.

[3] = molecular target: T2, NPR1-dependent oligomer on the PR-1 promoter (Arabidopsis thaliana, UniProt P93002); experiment: Cross-linked-chromatin chromatography (3C Method); format: in vivo; conditions: wild-type plants, region −734 to −833
T2 construct: in wild-type plants (WT), such an oligomer forms on the PR-1 promoter; endogenous in cells; host or cells: wild-type Arabidopsis plants
T2 sequence (P93002 1-593): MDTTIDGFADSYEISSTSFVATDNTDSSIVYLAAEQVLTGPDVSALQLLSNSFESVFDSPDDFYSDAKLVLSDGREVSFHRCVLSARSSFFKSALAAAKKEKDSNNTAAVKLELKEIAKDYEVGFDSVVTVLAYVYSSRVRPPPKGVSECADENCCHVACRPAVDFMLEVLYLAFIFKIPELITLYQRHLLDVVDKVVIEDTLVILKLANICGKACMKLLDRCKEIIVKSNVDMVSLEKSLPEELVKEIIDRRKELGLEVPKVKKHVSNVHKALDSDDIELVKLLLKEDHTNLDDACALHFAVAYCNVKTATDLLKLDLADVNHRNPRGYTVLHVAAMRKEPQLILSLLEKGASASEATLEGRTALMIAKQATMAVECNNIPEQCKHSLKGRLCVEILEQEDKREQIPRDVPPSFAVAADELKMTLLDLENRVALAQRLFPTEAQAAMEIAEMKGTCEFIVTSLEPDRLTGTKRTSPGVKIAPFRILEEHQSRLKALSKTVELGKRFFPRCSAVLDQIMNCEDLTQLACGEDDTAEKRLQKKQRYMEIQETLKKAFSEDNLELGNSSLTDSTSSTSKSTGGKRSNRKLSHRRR
Description: Plant treatment, cross-linking, sonication, and cross-linking reversal were performed as for chromatin-immunoprecipitation (Rochon et al., 2006). Chromatography was as described under “Chromatography”. qPCR was performed with PR1 and Ubiquitin5 primers. PR-1 values were normalized against Ubiquitin5 (see Table 1 for primer sequence).
Although there are no decisive methods to test the stoichiometry of a protein in vivo, it was determined whether or not NPR1-dependent oligomers form on DNA in vivo by combining chromatin cross-linking, gel filtration, and qPCR (the 3C Method). The rationale was that, if an NPR1-dependent oligomer forms on the PR1 promoter in vivo, the presence of PR1 should be detectable by qPCR in the void fraction of an S300 after the chromatin had been cross-linked and sheared by sonication.

PR-1 expression = PR-1 expression by quantitative RT-PCR after chemical treatment; format: in vivo, Arabidopsis; conditions: 12 hrs
Description: Total RNA was extracted from leaves using the Rneasy plant mini kit (Qiagen) according to the supplier's instructions. After treatment with Dnase I (Invitrogen), first strand cDNA synthesis was generated using SuperScript II reverse transcriptase (Invitrogen), and the (dT)17VN oligo in the presence of 0.4 U Rnasin (Fisher Scientific). The newly-synthesized cDNA was diluted 1/200 to reflect a concentration of 10 ng μL^−1 input total RNA. RT-PCR was performed on a CFX96 spectrofluorometric thermal cycler (BioRad). Firefly luciferase values were normalized against Renilla Luciferase and PR-1 values against Ubiquitin5 (see Table 1 for primer sequence). […] All treatments were for 12 hrs. Values consist of n=3 biological replicates and represent averages±1 SD.

[4] = 300 μM, fold-induction over water

- solubility in water (solubility in water): low solubility in water
Structure (SMILES): O=C(O)c1cc(Cl)cc(Cl)c1O [3,5-dichloro SA]

Structure (SMILES): O=C(O)c1cccc(O)c1 [3-hydroxy benzoic acid]
- affinity for NPR1 compared with SA (competitive binding) (NPR1 [1]): do not interact with NPR1 with the same affinity as SA

- solubility in water (solubility in water): low solubility in water
Structure (SMILES): O=C(O)c1ccc(Cl)cc1O [4-chloro SA]

Structure (SMILES): O=C(O)c1ccc(O)cc1 [4-hydroxy benzoic acid]
- affinity for NPR1 compared with SA (competitive binding) (NPR1 [1]): do not interact with NPR1 with the same affinity as SA
- conformation of NPR1 (S300 elution profile) (NPR1 [2]): do not alter the conformation of NPR1
- NPR1-dependent oligomer on the PR-1 promoter (void fraction, qPCR) [3]: did not reduce the amount of NPR1-dependent oligomer

- solubility in water (solubility in water): low solubility in water
Structure (SMILES): CSC(=O)c1cccc2nnsc12 [BTH, benzo(1,2,3)thiadiazole-7-carbothioic acid S-methyl ester]
- PR-1 expression (PR-1 expression; BTH at 100 μM): capacity to induce PR-1 expression
- NPR1-dependent oligomer on the PR-1 promoter (void fraction, qPCR) [3]: reduced the amount of NPR1-dependent oligomer on the PR-1 promoter

Structure (SMILES): O[C@@H](CS)[C@@H](O)CS [DTT]
- conformation of NPR1 (S300 elution profile) (NPR1 [2]): did not induce a redistribution of the protein to the included volume

Structure (SMILES): O=C(O)c1cc(Cl)nc(Cl)c1 [INA, 2,6-dichloroisonicotinic acid]
- PR-1 expression (PR-1 expression; 300 μM): poor inducer of PR-1 expression
- PR-1 induction, times less effective than an identical concentration of 4-chloro SA (PR-1 expression; [4]): 10 times
- PR-1 induction, times less effective than an identical concentration of SA (PR-1 expression; [4]): 42 times
- NPR1-dependent oligomer on the PR-1 promoter (void fraction, qPCR) [3]: did not affect the NPR1-dependent oligomer on the PR-1 promoter
- solubility in water (solubility in water): low solubility in water

Structure (SMILES): Oc1ccccc1O [catechol]
- affinity for NPR1 compared with SA (competitive binding) (NPR1 [1]): do not interact with NPR1 with the same affinity as SA
- conformation of NPR1 (S300 elution profile) (NPR1 [2]): do not alter the conformation of NPR1
